Measured values: patent US7795505B2, “Herbicide-resistance gene and utilization thereof” (Hokko Chemical Industry Co., Ltd., priority 2004, dated 2010)

Columns and labels:
[1] = system: enzyme capable of acetylating PPT of Streptomyces sp. AB3534 strain (pUC18-B2); test: Acetylation reaction with crude enzyme solution from E. coli transformed with pUC18-B2 (absorbance at 412 nm); format: biochemical; conditions: substrate specificity, vector pUC18-B2 (present invention)
Experimental: (§1) Escherichia coli transformed with pUC18-B2 having the herbicide-resistance gene of the present invention was inoculated into a liquid medium containing 50 ml of LB medium and 50 mg/L ampicillin, and cultured at 37° C. for 1 hour, and 50 μl of a 1 M thiogalactopyranoside solution was added to the culture solution, followed by culture at 37° C. for 3 hours. After completion of the culture, the culture solution was centrifuged at 5,000 rpm for 15 minutes to collect bacterial cells, and the cells were washed once with physiological saline. Then, the washed bacterial cells were suspended in 2 ml of a 20 mM Trisbuffer (pH 8.0) solution and disrupted by ultrasonic waves at 4° C. The solution was centrifuged at 15,000 rpm for 15 minutes to collect the supernatant. The supernatant was diluted 10-fold with 20 mM Tris buffer (pH 8.0) to prepare a crude enzyme solution. Then, 2 μl of the crude solution was added to 98 μl of a reaction solution, and the mixture was allowed to react at 28° C. for 1 hour, followed by measurement of the absorbance at 412 nm to measure the acetylation reaction. […]
(§2) The optimum pH and substrate specificity (Km value) to PPT and a structural homologue thereof, methionine sulfone (MS) were measured, and the results are shown in Table 2.

[2] = system: enzyme capable of acetylating PPT derived from actinomycete AB2253 strain (pUC19-AB); test: Acetylation reaction with crude enzyme solution from E. coli transformed with pUC19-AB; format: biochemical; conditions: substrate specificity, vector pUC19-AB (control)
Experimental: as §1, §2

[3] = system: Streptomyces lividans introduced with hybrid plasmid pBRB1; test: Bialaphos resistance of transformants; format: cell-based; conditions: all transformants with pBRB1
Experimental: The hybrid plasmid mixture thus obtained was used to transform a protoplast of Streptomyces lividans. The protoplast was regenerated, and then transformed strains having a bialaphos resistance were selected on a selective medium containing 10 mg/L bialaphos. The Streptomyces lividans used above as a host is a bacterial strain obtained by removing a plasmid pIJ703 from Streptomyces lividans 3131 by protoplastization and regeneration. Streptomyces lividans 3131 was obtained from Department of Antibiotics, National Institute of Health in 1985 (“The Journal of Antibiotics” 1985, vol. 38, pp. 390-400). […]
From the resultant two bialaphos-resistant strains, plasmids were extracted in accordance with a known method (“Current Topics in Microbiology and Immunology” 1982, vol. 96, pp. 69). […] These plasmids derived from the two strains were separately cleaved with a restriction enzyme BglII and analyzed by agarose electrophoresis. In both cases, the electrophoresis detected not only the DNA fragment of pIJ703 used in the vector but also an about 5.7-kb DNA fragment. […]

[4] = system: Escherichia coli transformed with pUC18-B2; test: Growth on M9 agar medium containing bialaphos; format: cell-based; conditions: 1 mM IPTG, 10 mg/L bialaphos
Experimental: That is, the plasmid pUC18-B1 was cleaved with restriction enzymes EcoRI and SmaI (20 units each) at 37° C. for 2 hours and subjected to agarose electrophoresis, and only a 0.6 kb-fragment was cut and purified using GeneClean. On the other hand, 2 μg of the plasmid pUC18 was cleaved with EcoRI and SmaI (20 units each) at 37° C. for 2 hours, and the fragments were purified using GeneClean (manufactured by Bio101). The DNA fragments were allowed to react using Takara Ligation kit at 16° C. for 3 hours, to thereby yield a solution of the plasmid pUC18-B2 obtained by integrating the about 0.6-kb EcoRI, SmaI-cleaved DNA fragment derived from pBRB1 into the EcoRI, SmaI-cleaved DNA fragment of the plasmid pUC18. […] The nucleotide sequence was determined by custom DNA sequencing service (Hokkaido System Science Co., Ltd.).

[5] = system: Escherichia coli transformed with pUC18-B1; test: Growth on M9 agar medium containing bialaphos; format: cell-based; conditions: 1 mM IPTG, 10 mg/L bialaphos
Experimental: The about 1.2-kb EcoRI-BglII fragment that had been confirmed to have a bialaphos-resistance gene was ligated to the EcoRI-BamHI site of a commercially available plasmid vector pUC18, and the resultant plasmid was introduced into Escherichia coli, to thereby yield a transformed Escherichia coli strain having a resistance to bialaphos. A deletion plasmid was prepared by using the SmaI site in the about 1.2-kb EcoRI, BglII fragment and was used to transform Escherichia coli, and as a result, the herbicide-resistance gene of the present invention was confirmed to be present on an about 0.6-kb EcoRI-SmaI fragment. 2 μg of the hybrid plasmid pBRB1 was cleaved with restriction enzymes EcoRI and BglII (20 units each) at 37° C. for 2 hours and subjected to agarose electrophoresis, and only a 1.2 kb-fragment was cut and purified using GeneClean. On the other hand, 2 μg of the plasmid pUC18 was cleaved with EcoRI and BamHI (20 units each) at 37° C. for 2 hours, and the fragments were purified using GeneClean (manufactured by Bio101). […]
That is, the plasmid pUC18-B1 was cleaved with restriction enzymes EcoRI and SmaI (20 units each) at 37° C. for 2 hours and subjected to agarose electrophoresis, and only a 0.6 kb-fragment was cut and purified using GeneClean. […] The nucleotide sequence was determined by custom DNA sequencing service (Hokkaido System Science Co., Ltd.).

[6] = system: CP(=O)(O)CC[C@H](N)C(=O)O; test: cells, lysate or membranes named; conditions: other: substrate specificity; crude enzyme, vector pUC19-SH (control); pH 8.0
Experimental: as §1, §2

Row | Compound | Km [1] | Km [2] | also measured
1 | CP(=O)(O)CC[C@H](N)C(=O)O (racemic) [PPT, phosphinothricin] | 2460 µM | 14300 µM | 
2 | CS(=O)(=O)CC[C@H](N)C(=O)O [MS, methionine sulfone] | 13000 µM | 2200 µM | 
3 | C[C@H](NC(=O)[C@H](C)NC(=O)[C@@H](N)CCP(C)(=O)O)C(=O)O [bialaphos] |  |  | resistance of transformants to bialaphos [3]: all the resultant transformants were found to have a resistance to bialaphos; growth on medium containing bialaphos [4]: found to grow; growth on medium containing bialaphos [5]: found to grow
4 | enzyme capable of acetylating PPT derived from Streptomyces hygroscopicus (pUC19-SH) (Streptomyces hygroscopicus) |  |  | Km [6]: 90 µM
